Key:
HLA A*0101 [1] = biological target: T1, HLA A*0101 (Homo sapiens, UniProt P04439, A114D/A174V/A182V/D101N/D185E/E176A/E190D/L180R/Q94H/R68K/S129P/T187R/V100A/V91M/W191G); assay: ITOPIA peptide binding assay; settings: 1.11×10^−4M of peptide
T1 construct: purchased
Method: (§1) Peptide binding, off-rate and affinity were measured according to the protocols described in the ITOPIA Epitope Discovery System Customer Guide. To conduct the experiments, ninety-six (96) micro-titer plates coated with MHC molecules representing the HLA alleles listed in Table 9 were used to identify candidate peptides. Determinations were performed in duplicate using an ELISA plate reader. The peptide binding assay used measures the ability of individual peptides to bind to the HLA molecules under standardized optimal binding conditions. The assay was performed for all the test peptides across the selected HLA alleles. The test peptides identified as “binders” were characterized further in terms of affinity and dissociation experiments. The off-rate assay used evaluates the dissociation of previously bound peptide at defined time points (expressed as the t1/2 value). The affinity assay used measures the relative binding affinities for the MHC molecules determined by incubating candidate peptides identified in the initial peptide binding assay at increasing concentrations (expressed as quantity of peptide needed to achieve 50% binding or ED50 value).
(§2) The binding of the test peptides (Table 8) to the HLA molecules (Table 9) was performed at a concentration of 1.11×10^−4M of peptide under optimal, standardized test conditions. A control peptide was run in parallel on the same plate and at the same concentration as the test peptides. […] The level of binding is expressed as a percent of positive control peptide binding for each allele.

HLA A*1101 [2] = biological target: T2, HLA A*1101 (Homo sapiens, UniProt P04439, A114D/D185E/E176A/F33Y/L180Q/S129P/T187R); assay: ITOPIA peptide binding assay; settings: 1.11×10^−4M of peptide
T2 construct: purchased
Method: as §1, §2

HLA A*2402 [3] = biological target: T3, HLA A*2402 (Homo sapiens, UniProt P04439, D101N/D140Y/D185E/E176V/E190D/F33S/G103R/G107R/I119L/I121M/I306V/K335N/L105A/L180Q/L300P/N151K/N90K/Q86E/Q94H/R106L/R138H/R89G/T104I/T345S/V100E/W191G/Y123F); assay: ITOPIA peptide binding assay; settings: 1.11×10^−4M of peptide
Method: as §1, §2

HLA B*0702 [4] = biological target: T4, HLA B*0702 (Homo sapiens, UniProt P01889); assay: ITOPIA peptide binding assay; settings: 1.11×10^−4M of peptide
T4 construct: purchased
Method: as §1, §2

HLA A*0301 [5] = biological target: T5, HLA A*0301 (Homo sapiens, UniProt P04439); assay: ITOPIA peptide binding assay; settings: 1.11×10^−4M of peptide
T5 construct: purchased
Method: as §1, §2

HLA B*0801 [6] = biological target: T6, HLA B*0801 (Homo sapiens, UniProt P01889, A93T/A95T/D138N/E176V/E187T/K202T/Q94N/R180D/S35A/V36M/Y33D/Y91F); assay: ITOPIA peptide binding assay; settings: 1.11×10^−4M of peptide
T6 construct: purchased
Method: as §1, §2

HLA A*0201 [7] = biological target: T7, HLA A*0201 (Homo sapiens, UniProt P04439, D140Y/D185E/D98H/E176V/E277Q/G131W/G231S/I119V/I121R/I166T/I218V/L300P/L318F/N151K/N90K/P208A/P217A/Q86G/Q94H/R138H/R169H/T345S); assay: ITOPIA peptide binding assay; settings: 1.11×10^−4M of peptide
Method: as §1, §2

HLA B*1501 [8] = biological target: T8, HLA B*1501 (Homo sapiens, UniProt P01889, A329T/A93T/A95T/C349S/D201E/D98Y/E187L/E204Q/E69M/E70A/K202T/N87E/Q94N/R155S/R180W/S121R/S35A/S48A/V306I/V36M/Y140S/Y91S); assay: ITOPIA peptide binding assay; settings: 1.11×10^−4M of peptide
T8 construct: purchased
Method: as §1, §2

HLA A*2402 [9] = biological target: T3, HLA A*2402; assay: ITOPIA off-rate assay; assay type: binding; settings: 37° C., one-phase exponential decay
Method: as §1
(§3) The peptides initially identified as binders were evaluated for stability based on their ability to remain bound to MHC molecules at 37° C. at time points 0, 0.5, 1, 1.5, 2, 4, 6 and 8 hours. […] The values obtained for each time point (in duplicate) are expressed (Table 11) as a percentage of the positive control. To calculate the t1/2 and goodness-of-fit, as measured by r^2, for each peptide, a one-phase exponential decay curve, with a plateau given equal to 0, was generated using […] PRISM software.

HLA A*0201 [10] = biological target: T7, HLA A*0201; assay: ITOPIA off-rate assay; assay type: binding; settings: 37° C., one-phase exponential decay
Method: as §1, §3

HLA A*0101 [11] = biological target: T1, HLA A*0101; assay: Multi-parametric analysis iScore; assay type: binding; design: scale not given here; settings: index integrating t1/2 and ED50
Method: (§4) Multi-parametric analysis was performed to integrate the half-life (t½) and ED50 parameters in an index (iScore). The iScore (Table 13) reflects the capability of a peptide to reconstitute with MHC molecules in a stable complex, defining its overall level of binding.

HLA A*1101 [12] = biological target: T2, HLA A*1101; assay: Multi-parametric analysis iScore; assay type: binding; design: scale not given here; settings: index integrating t1/2 and ED50
Method: as §4

HLA A*2402 [13] = biological target: T3, HLA A*2402; assay: Multi-parametric analysis iScore; assay type: binding; design: scale not given here; settings: index integrating t1/2 and ED50
Method: as §4

HLA B*0702 [14] = biological target: T4, HLA B*0702; assay: Multi-parametric analysis iScore; assay type: binding; design: scale not given here; settings: index integrating t1/2 and ED50
Method: as §4

HLA A*0301 [15] = biological target: T5, HLA A*0301; assay: Multi-parametric analysis iScore; assay type: binding; design: scale not given here; settings: index integrating t1/2 and ED50
Method: as §4

HLA B*0801 [16] = biological target: T6, HLA B*0801; assay: Multi-parametric analysis iScore; assay type: binding; design: scale not given here; settings: index integrating t1/2 and ED50
Method: as §4

HLA A*0201 [17] = biological target: T7, HLA A*0201; assay: Multi-parametric analysis iScore; assay type: binding; design: scale not given here; settings: index integrating t1/2 and ED50
Method: as §4

HLA B*1501 [18] = biological target: T8, HLA B*1501; assay: Multi-parametric analysis iScore; assay type: binding; design: scale not given here; settings: index integrating t1/2 and ED50
Method: as §4

HLA B*1501 [19] = biological target: T8, HLA B*1501; assay: ITOPIA off-rate assay; assay type: binding; settings: 37° C., one-phase exponential decay
Method: as §1, §3

HLA B*0702 [20] = biological target: T4, HLA B*0702; assay: ITOPIA off-rate assay; assay type: binding; settings: 37° C., one-phase exponential decay
Method: as §1, §3

HLA B*0801 [21] = biological target: T6, HLA B*0801; assay: ITOPIA off-rate assay; assay type: binding; settings: 37° C., one-phase exponential decay
Method: as §1, §3

ALFYKLDVI [compound 158]
level of binding, percent of positive control peptide binding (HLA A*0101 [1]): 1% of positive control | level of binding, percent of positive control peptide binding (HLA A*1101 [2]): 1% of positive control | level of binding, percent of positive control peptide binding (HLA A*2402 [3]): 99% of positive control | level of binding, percent of positive control peptide binding (HLA B*0702 [4]): 3% of positive control | level of binding, percent of positive control peptide binding (HLA A*0301 [5]): 14% of positive control | level of binding, percent of positive control peptide binding (HLA B*0801 [6]): 5% of positive control | level of binding, percent of positive control peptide binding (HLA A*0201 [7]): 62% of positive control | level of binding, percent of positive control peptide binding (HLA B*1501 [8]): 3% of positive control | A*2402 t1/2 (HLA A*2402 [9]): 1.1 h | A*0201 t1/2 (HLA A*0201 [10]): 5.5 h | iScore (HLA A*0101 [11]): 0 | iScore (HLA A*1101 [12]): 0 | iScore (HLA A*2402 [13]): 0.339 | iScore (HLA B*0702 [14]): 0 | iScore (HLA A*0301 [15]): 0 | iScore (HLA B*0801 [16]): 0 | iScore (HLA A*0201 [17]): 0.460 | iScore (HLA B*1501 [18]): 0

CSSNITGLI [compound 154]
level of binding, percent of positive control peptide binding (HLA A*0101 [1]): 5% of positive control | level of binding, percent of positive control peptide binding (HLA A*1101 [2]): 1% of positive control | level of binding, percent of positive control peptide binding (HLA A*2402 [3]): 29% of positive control | level of binding, percent of positive control peptide binding (HLA B*0702 [4]): 5% of positive control | level of binding, percent of positive control peptide binding (HLA A*0301 [5]): 0% of positive control | level of binding, percent of positive control peptide binding (HLA B*0801 [6]): 6% of positive control | level of binding, percent of positive control peptide binding (HLA A*0201 [7]): 44% of positive control | level of binding, percent of positive control peptide binding (HLA B*1501 [8]): 40% of positive control | A*2402 t1/2 (HLA A*2402 [9]): 1.5 h | A*0201 t1/2 (HLA A*0201 [10]): 0.4 h | B*1501 t1/2 (HLA B*1501 [19]): 3.8 h | iScore (HLA A*0101 [11]): 0 | iScore (HLA A*1101 [12]): 0 | iScore (HLA A*2402 [13]): 0.038 | iScore (HLA B*0702 [14]): 0 | iScore (HLA A*0301 [15]): 0 | iScore (HLA B*0801 [16]): 0 | iScore (HLA A*0201 [17]): 0.114 | iScore (HLA B*1501 [18]): 0.112

CSSNITGLL [compound 69]
level of binding, percent of positive control peptide binding (HLA A*0101 [1]): 4% of positive control | level of binding, percent of positive control peptide binding (HLA A*1101 [2]): 1% of positive control | level of binding, percent of positive control peptide binding (HLA A*2402 [3]): 26% of positive control | level of binding, percent of positive control peptide binding (HLA B*0702 [4]): 5% of positive control | level of binding, percent of positive control peptide binding (HLA A*0301 [5]): 0% of positive control | level of binding, percent of positive control peptide binding (HLA B*0801 [6]): 4% of positive control | level of binding, percent of positive control peptide binding (HLA A*0201 [7]): 37% of positive control | level of binding, percent of positive control peptide binding (HLA B*1501 [8]): 30% of positive control | A*2402 t1/2 (HLA A*2402 [9]): 1.1 h | A*0201 t1/2 (HLA A*0201 [10]): 0.3 h | B*1501 t1/2 (HLA B*1501 [19]): 3.1 h | iScore (HLA A*0101 [11]): 0 | iScore (HLA A*1101 [12]): 0 | iScore (HLA A*2402 [13]): 0.016 | iScore (HLA B*0702 [14]): 0 | iScore (HLA A*0301 [15]): 0 | iScore (HLA B*0801 [16]): 0 | iScore (HLA A*0201 [17]): 0.081 | iScore (HLA B*1501 [18]): 0.067

FPRIWLHGL [compound 152]
level of binding, percent of positive control peptide binding (HLA A*0101 [1]): 0% of positive control | level of binding, percent of positive control peptide binding (HLA A*1101 [2]): 0% of positive control | level of binding, percent of positive control peptide binding (HLA A*2402 [3]): 41% of positive control | level of binding, percent of positive control peptide binding (HLA B*0702 [4]): 132% of positive control | level of binding, percent of positive control peptide binding (HLA A*0301 [5]): 0% of positive control | level of binding, percent of positive control peptide binding (HLA B*0801 [6]): 39% of positive control | level of binding, percent of positive control peptide binding (HLA A*0201 [7]): 9% of positive control | level of binding, percent of positive control peptide binding (HLA B*1501 [8]): 3% of positive control | B*0702 t1/2 (HLA B*0702 [20]): 1.1 h | B*0801 t1/2 (HLA B*0801 [21]): 1.8 h | iScore (HLA A*0101 [11]): 0 | iScore (HLA A*1101 [12]): 0 | iScore (HLA A*2402 [13]): 0 | iScore (HLA B*0702 [14]): 0.421 | iScore (HLA A*0301 [15]): 0 | iScore (HLA B*0801 [16]): 0.189 | iScore (HLA A*0201 [17]): 0 | iScore (HLA B*1501 [18]): 0
